Here are results for 3 molecules from US20100077512A1 (priority 2006, published 2010).

Structures are written as SMILES.

The subject of data set [1] is tobacco budworm (Heliothis virescens). The settings on record: 2500 ppm, eggs sprayed, 6 days. Here is the method: 15 to 25 eggs were placed into microtiterplates filled with diet. The eggs were sprayed with 10 μl of the test solution, the plates were sealed with pierced foils and kept at 27-29° C. and 75-85% humidity under fluorescent light for 6 days. Mortality was assessed on the basis of the agility and of comparative feeding of the hatched larvae. Tests were replicated 2 times.

Data set [2] deals with Mediterranean fruitfly (Ceratitis capitata). The settings on record: 2500 ppm, eggs sprayed, 6 days.

The melting point is the temperature, or range, at which the solid turns liquid. As to `O=S(=O)(NCc1ccnnc1)c1cc(Br)cs1`, the melting point was 120 to 122 °C. For `N#Cc1ccc(-c2ccc(S(=O)(=O)NCc3ccnnc3)cc2)cc1` [Example 11], the mortality result in data set [1] is given as “at least 75%”. Consider `O=S(=O)(NCc1ccnnc1)c1ccc(-c2ccc(Cl)cc2)nc1` [Example 60], for which the mortality result in data set [2] is “at least 75%”.
